Measurements from ChEMBL document CHEMBL5214967, “Natural Product-Inspired Targeted Protein Degraders: Advances and Perspectives” (J Med Chem, 2022).

Key:
[1] = Antiviral activity against IAV WSN/33 infected in luciferase tagged HEK293T cells assessed as suppression of de novo viral replication incubated for 24 hr; assay type: functional, cell-based; details: Influenza A virus, WSN/33, HEK-293T
SK-BR-3 = test: Cytotoxicity against human SK-BR-3 cells by inducing cell cycle arrest incubated for 30 mins measured by FacScallibur flow cytometric analysis; assay type: functional, cell-based; details: SK-BR-3, 0.5 h
[2] = target: von Hippel-Lindau disease tumor suppressor/G-protein coupled estrogen receptor 1 (Homo sapiens, UniProt Q99527+P40337); test: PROTAC activity at VHL/GPER (unknown origin) assessed as degradation of GPER; assay type: protein assay
Chain of von Hippel-Lindau disease tumor suppressor/G-protein coupled estrogen receptor 1 (Q99527 whole entry): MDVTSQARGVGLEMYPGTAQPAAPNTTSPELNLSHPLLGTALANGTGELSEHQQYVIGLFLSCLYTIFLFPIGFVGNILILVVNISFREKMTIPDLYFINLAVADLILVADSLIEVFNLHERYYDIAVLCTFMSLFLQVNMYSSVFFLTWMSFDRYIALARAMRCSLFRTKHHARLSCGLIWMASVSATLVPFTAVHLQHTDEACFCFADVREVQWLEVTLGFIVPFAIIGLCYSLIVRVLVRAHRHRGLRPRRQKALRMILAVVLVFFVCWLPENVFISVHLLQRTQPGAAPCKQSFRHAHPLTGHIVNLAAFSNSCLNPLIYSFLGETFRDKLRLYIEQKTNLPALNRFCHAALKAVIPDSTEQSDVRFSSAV
Chain of von Hippel-Lindau disease tumor suppressor/G-protein coupled estrogen receptor 1 (P40337 whole entry): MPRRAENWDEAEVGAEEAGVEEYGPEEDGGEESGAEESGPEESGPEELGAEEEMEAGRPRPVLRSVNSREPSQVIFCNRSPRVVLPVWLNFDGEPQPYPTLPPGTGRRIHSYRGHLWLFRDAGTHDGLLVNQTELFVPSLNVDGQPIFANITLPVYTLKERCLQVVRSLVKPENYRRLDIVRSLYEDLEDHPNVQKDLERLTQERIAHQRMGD

[3] = target: von Hippel-Lindau disease tumor suppressor/Estrogen receptor (Homo sapiens, UniProt P03372+P40337); test: PROTAC activity at VHL/ERalpha in human MCF7 cells assessed as degradation of ERalpha; assay type: cell-based
Chain of von Hippel-Lindau disease tumor suppressor/Estrogen receptor (P03372 whole entry): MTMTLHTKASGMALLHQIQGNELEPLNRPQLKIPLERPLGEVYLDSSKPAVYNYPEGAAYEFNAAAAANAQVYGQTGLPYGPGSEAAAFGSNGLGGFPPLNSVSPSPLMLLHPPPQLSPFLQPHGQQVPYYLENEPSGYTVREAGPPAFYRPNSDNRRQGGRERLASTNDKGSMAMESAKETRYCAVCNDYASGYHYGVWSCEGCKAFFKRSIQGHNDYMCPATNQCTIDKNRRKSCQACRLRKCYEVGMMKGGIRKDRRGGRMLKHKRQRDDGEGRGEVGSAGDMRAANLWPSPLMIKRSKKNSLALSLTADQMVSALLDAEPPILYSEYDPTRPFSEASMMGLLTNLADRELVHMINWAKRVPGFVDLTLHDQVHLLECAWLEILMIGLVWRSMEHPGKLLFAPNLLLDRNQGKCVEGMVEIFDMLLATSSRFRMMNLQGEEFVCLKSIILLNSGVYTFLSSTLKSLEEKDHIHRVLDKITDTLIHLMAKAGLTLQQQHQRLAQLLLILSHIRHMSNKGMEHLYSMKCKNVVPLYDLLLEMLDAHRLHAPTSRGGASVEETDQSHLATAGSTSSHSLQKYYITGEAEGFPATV
Chain of von Hippel-Lindau disease tumor suppressor/Estrogen receptor (P40337 whole entry): as the sequence (P40337 whole entry) above

MCF7 = test: Cytotoxicity against human MCF7 cells by inducing cell cycle arrest incubated for 30 mins measured by FacScallibur flow cytometric analysis; assay type: functional, cell-based; details: MCF7, 0.5 h
SK-MEL-5 = test: In vivo antitumor activity against human SK-MEL-5 cells xenografted in BALB/c nude mouse administered intraperitoneally every 2 days for 17 days; assay type: functional, organism-based
Protein cereblon/Basigin = Protein cereblon/Basigin (Homo sapiens, UniProt P35613+Q96SW2); test: PROTAC activity at CRBN/CD147 (unknown origin) assessed as degradation of CD147; assay type: protein assay
Chain of Protein cereblon/Basigin (P35613 whole entry): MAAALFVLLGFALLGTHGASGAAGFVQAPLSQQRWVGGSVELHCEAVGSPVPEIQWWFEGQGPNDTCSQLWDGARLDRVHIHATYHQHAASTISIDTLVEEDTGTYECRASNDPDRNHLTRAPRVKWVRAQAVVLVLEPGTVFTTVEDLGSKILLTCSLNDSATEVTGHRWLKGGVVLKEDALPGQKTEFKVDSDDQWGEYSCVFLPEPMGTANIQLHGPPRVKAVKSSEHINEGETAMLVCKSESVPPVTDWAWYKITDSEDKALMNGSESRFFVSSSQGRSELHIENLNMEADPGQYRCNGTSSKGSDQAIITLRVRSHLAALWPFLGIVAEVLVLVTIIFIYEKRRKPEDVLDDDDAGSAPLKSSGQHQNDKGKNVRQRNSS
Chain of Protein cereblon/Basigin (Q96SW2 whole entry): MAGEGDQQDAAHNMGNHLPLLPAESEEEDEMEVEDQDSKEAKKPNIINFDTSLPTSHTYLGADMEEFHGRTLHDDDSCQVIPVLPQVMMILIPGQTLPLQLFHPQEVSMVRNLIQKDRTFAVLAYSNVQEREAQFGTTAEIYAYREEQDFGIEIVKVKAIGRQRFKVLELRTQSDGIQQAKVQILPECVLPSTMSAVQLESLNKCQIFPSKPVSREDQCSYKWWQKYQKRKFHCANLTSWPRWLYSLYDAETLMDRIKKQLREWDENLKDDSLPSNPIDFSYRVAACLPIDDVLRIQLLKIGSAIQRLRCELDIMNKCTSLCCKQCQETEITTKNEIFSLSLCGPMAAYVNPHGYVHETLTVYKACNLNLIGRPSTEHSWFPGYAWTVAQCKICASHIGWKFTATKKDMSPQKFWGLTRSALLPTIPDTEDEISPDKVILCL

[4] = target: E3 ubiquitin-protein ligase RNF114 (Homo sapiens, UniProt Q9Y508); test: Inhibition of RNF114 (unknown origin)
Chain of E3 ubiquitin-protein ligase RNF114 (Q9Y508 whole entry): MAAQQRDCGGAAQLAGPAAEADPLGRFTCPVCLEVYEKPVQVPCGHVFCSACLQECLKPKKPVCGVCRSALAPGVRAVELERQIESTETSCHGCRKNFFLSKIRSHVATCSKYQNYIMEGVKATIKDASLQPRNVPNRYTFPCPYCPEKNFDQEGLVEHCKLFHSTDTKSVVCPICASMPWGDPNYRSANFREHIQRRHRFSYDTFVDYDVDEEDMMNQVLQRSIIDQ

[5] = target: E3 ubiquitin-protein ligase RNF114/Bromodomain-containing protein 4 (Homo sapiens, UniProt O60885+Q9Y508); test: PROTAC activity at RNF114/BRD4 (unknown origin) assessed as degradation of BRD4 incubated for 30 mins SDS-PAGE based fluorescence analysis
Chain of E3 ubiquitin-protein ligase RNF114/Bromodomain-containing protein 4 (Q9Y508 whole entry, looked up, other chains not shown): as the sequence (Q9Y508 whole entry) above

SU-DHL-1 = test: Cytotoxicity against human SU-DHL-1 cells incubated for 72 hrs by CCK-8 assay; assay type: functional, cell-based; details: SU-DHL-1, 72 h
[6] = target: T1, von Hippel-Lindau disease tumor suppressor/3-hydroxy-3-methylglutaryl-coenzyme A reductase (Homo sapiens, UniProt P04035+P40337); test: PROTAC activity at VHL/recombinant HMGCR in human Insig-depletion HepG2 cells assessed as degradation of HMGCR measured after 16 hrs; assay type: cell-based
Target sequence in this assay (P40337 whole entry, one chain of several): as the sequence (P40337 whole entry) above

[7] = target: T1, von Hippel-Lindau disease tumor suppressor/3-hydroxy-3-methylglutaryl-coenzyme A reductase; test: PROTAC activity at VHL/recombinant HMGCR in human HepG2 cells assessed as degradation of HMGCR measured at 0.1 uM after 16 hrs relative to control; assay type: cell-based
Target sequence in this assay (P40337 whole entry, looked up, one chain of several): as the sequence (P40337 whole entry) above

[8] = target: T2, 3-hydroxy-3-methylglutaryl-coenzyme A reductase (Homo sapiens, UniProt P04035); test: Inhibition of HMGCR (unknown origin)
T2 sequence (P04035 whole entry): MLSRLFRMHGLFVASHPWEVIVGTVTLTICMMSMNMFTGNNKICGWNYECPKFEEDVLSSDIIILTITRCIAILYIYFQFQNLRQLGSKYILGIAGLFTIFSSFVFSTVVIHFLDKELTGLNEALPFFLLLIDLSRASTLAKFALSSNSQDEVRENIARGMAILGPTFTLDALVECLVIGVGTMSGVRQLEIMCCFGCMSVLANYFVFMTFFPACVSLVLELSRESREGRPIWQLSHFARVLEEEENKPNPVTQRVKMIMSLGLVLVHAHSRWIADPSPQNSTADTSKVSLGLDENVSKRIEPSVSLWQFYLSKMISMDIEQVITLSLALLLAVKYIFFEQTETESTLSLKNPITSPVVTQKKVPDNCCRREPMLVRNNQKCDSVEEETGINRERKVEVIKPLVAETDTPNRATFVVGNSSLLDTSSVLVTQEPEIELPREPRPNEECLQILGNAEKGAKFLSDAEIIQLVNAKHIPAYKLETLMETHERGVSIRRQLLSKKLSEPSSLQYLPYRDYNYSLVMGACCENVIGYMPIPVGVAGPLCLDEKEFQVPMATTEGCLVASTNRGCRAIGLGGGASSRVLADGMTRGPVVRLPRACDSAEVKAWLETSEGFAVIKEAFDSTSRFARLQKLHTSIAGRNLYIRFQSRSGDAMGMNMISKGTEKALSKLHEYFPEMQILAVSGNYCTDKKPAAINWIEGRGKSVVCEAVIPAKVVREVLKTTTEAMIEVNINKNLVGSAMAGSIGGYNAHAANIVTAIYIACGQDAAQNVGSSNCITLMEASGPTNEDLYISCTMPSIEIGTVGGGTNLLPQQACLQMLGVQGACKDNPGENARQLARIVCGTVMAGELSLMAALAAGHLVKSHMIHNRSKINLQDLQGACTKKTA

[9] = target: T1, von Hippel-Lindau disease tumor suppressor/3-hydroxy-3-methylglutaryl-coenzyme A reductase; test: PROTAC activity at VHL/recombinant HMGCR in human Insig-depletion HepG2 cells assessed as degradation of HMGCR measured at 1 uM after 16 hrs relative to control; assay type: cell-based
Target sequence in this assay (P40337 whole entry, looked up, one chain of several): as the sequence (P40337 whole entry) above

[10] = Degradation of ER in human MCF7 cells; assay type: cell-based
[11] = target: T2, 3-hydroxy-3-methylglutaryl-coenzyme A reductase; test: Degradation of HMGCR (unknown origin) expressed in CHO-7 cells; assay type: cell-based
[12] = target: T3, Protein cereblon/Protein deacetylase HDAC6 (Homo sapiens, UniProt Q9UBN7+Q96SW2); test: PROTAC activity at CRBN/HDAC6 (unknown origin) assessed as degradation of HDAC6; assay type: protein assay
Target sequence in this assay (Q9UBN7 whole entry): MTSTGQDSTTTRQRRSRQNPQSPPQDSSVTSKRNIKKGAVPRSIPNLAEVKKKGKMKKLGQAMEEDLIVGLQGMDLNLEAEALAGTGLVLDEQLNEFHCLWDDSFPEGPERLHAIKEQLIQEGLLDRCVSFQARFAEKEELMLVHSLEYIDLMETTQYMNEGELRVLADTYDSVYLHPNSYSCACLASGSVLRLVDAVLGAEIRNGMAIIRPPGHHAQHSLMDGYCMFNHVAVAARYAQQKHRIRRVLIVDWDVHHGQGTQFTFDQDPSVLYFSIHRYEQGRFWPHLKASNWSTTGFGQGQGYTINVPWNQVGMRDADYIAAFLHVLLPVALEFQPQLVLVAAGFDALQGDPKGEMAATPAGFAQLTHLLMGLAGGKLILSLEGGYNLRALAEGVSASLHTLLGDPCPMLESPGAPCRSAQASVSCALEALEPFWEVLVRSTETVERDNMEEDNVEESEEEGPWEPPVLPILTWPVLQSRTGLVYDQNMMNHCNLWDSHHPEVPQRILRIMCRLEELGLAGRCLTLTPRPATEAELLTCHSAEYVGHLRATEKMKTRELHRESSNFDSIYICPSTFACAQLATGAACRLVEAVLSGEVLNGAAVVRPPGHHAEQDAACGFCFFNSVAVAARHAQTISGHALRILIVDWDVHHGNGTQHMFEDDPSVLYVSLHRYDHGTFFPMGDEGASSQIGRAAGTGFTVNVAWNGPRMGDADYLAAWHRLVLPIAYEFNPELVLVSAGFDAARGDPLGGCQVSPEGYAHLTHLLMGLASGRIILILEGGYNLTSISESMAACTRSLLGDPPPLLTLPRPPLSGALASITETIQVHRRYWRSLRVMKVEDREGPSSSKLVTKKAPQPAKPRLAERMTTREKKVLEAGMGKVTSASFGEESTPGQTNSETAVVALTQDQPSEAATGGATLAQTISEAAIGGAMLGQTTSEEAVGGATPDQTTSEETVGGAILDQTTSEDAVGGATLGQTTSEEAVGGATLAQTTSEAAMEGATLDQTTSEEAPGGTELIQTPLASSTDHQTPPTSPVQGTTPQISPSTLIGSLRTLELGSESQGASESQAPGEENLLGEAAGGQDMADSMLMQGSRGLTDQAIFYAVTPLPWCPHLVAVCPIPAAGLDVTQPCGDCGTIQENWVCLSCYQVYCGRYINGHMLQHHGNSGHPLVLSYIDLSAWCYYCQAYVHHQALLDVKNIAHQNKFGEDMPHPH
Target sequence in this assay (Q96SW2 whole entry): as the sequence (Q96SW2 whole entry) above

[13] = target: T3, Protein cereblon/Protein deacetylase HDAC6; test: PROTAC activity at CRBN/HDAC6 (unknown origin) assessed as degradation of HDAC6 relative to control; assay type: protein assay
Target sequence in this assay (Q96SW2 whole entry, looked up): as the sequence (Q96SW2 whole entry) above
Target sequence in this assay (Q9UBN7 whole entry, looked up): as the sequence (Q9UBN7 whole entry) above

## C/C(=C\CC/C(C)=C/C[C@]1(O)C(=O)c2c(O)cc(C)c3c(O)c(C)c(O)c(c23)C1=O)CC/C=C(\CO)CC[C@@H](O)C(C)(C)O
[1]
  IC50: 6.6 µM

## Cc1ncsc1-c1ccc(CNC(=O)[C@@H]2C[C@@H](O)CN2C(=O)[C@@H](NC(=O)COCCOCCOCCOCC(=O)NCCOCCOCCOCCOCCOCCOCCOCCOCCC(=O)O[C@H]2CC[C@H]3[C@@H]4CCc5cc(O)ccc5[C@H]4CC[C@]23C)C(C)(C)C)cc1
SK-BR-3
  IC50: 11.1 µM
[2]
  DC50: 100 µM
[3]
  DC50: 10 µM
MCF7
  IC50: 17 µM

## COC(=O)C1=CC[C@]23CC[C@H]([C@@]2(OC(C)=O)CC1)[C@](C)(/C=C/C=C(\C)C(=O)NCCNc1cccc2c1C(=O)N(C1CCC(=O)NC1=O)C2=O)OC3=O (some centres not stated)
SK-MEL-5
  IC50: 6.23 µM
Protein cereblon/Basigin
  IC50: 6.72 µM

## COC(=O)C[C@H]1[C@]2(C)C3=C(C)C(c4ccoc4-c4ccc(C(=O)NCCCNC(=O)C[C@@H]5N=C(c6ccc(Cl)cc6)c6c(sc(C)c6C)-n6c(C)nnc65)cc4)C[C@H]3C[C@@H]2[C@@H]2OC(=O)[C@]3(C)C=CC(=O)[C@@]1(C)[C@@H]23 (some centres not stated)
[4]
  IC50: 0.24 µM
[5]
  DC50: 0.01 µM

## Cc1cc(Nc2ncc(N)c(Nc3ccccc3S(=O)(=O)C(C)C)n2)c(OC(C)C)cc1C1CCN(C(=O)CCCC(=O)N[C@@H](C(=O)N2C[C@H](OC(=O)CCCCn3cc(CNC(=O)CCC(NC(=O)c4ccc(NCc5cnc6nc(N)[nH]c(=O)c6n5)cc4)C(=O)O)nn3)C[C@H]2C(=O)N[C@@H](C)c2ccc(-c3scnc3C)cc2)C(C)(C)C)CC1 (some centres not stated)
SU-DHL-1
  IC50: 0.2 µM

## Cc1ncsc1-c1ccc(CNC(=O)[C@@H]2C[C@@H](O)CN2C(=O)[C@@H](NC(=O)COCCOCCOCCOCC(=O)O[C@H]2CC[C@H]3[C@@H]4CCc5cc(O)ccc5[C@H]4CC[C@]23C)C(C)(C)C)cc1
SK-BR-3
  IC50: 10.9 µM
[2]
  DC50: 100 µM
[3]
  DC50: 10 µM
MCF7
  IC50: 9 µM

## Cc1ncsc1-c1ccc(CNC(=O)[C@@H]2C[C@@H](O)CN2C(=O)[C@H](NC(=O)CCCCCCCCCCNC(=O)OC2C[C@@H](C)C=C3C=C[C@H](C)[C@H](CC[C@@H](O)C[C@@H](O)CC=O)[C@H]32)C(C)(C)C)cc1 (some centres not stated)
[6]
  DC50: 0.12 µM
[7]
  Emax: 56%
[8]
  IC50: 0.25 µM
[9]
  Emax: 76%

## CC1=CC(=O)[C@H]2/C(C=O)=C\C[C@H]3[C@@H]([C@@H](C)/C=C\C=C/C(=O)OCCOCCOCCOC(=O)CC45CC6CC(CC(C6)C4)C5)CC[C@]3(C)C[C@H]12
[10]
  DC50: 1 µM

## C=CCC(O)(CC=C)CCC[C@@H](C)[C@H]1CC[C@H]2[C@@H]3[C@@H](O)C=C4C(C)(C)[C@@H](O)CC[C@]4(C)[C@H]3CC[C@]12C
[11]
  DC50: 0.39 µM

## O=C(CCCO/N=C1/C(=C2/C(=O)N(Cc3cn(CCOCCNc4cccc5c4C(=O)N(C4CCC(=O)NC4=O)C5=O)nn3)c3ccccc32)Nc2ccccc21)NO (configuration not stated)
[12]
  DC50: 0.109 µM
[13]
  Emax: 88%
